Measurements from patent US9204653B2, “5-fluoro pyrimidine derivatives” (DOW AGROSCIENCES LLC, priority 2008, dated 2015).
Like-named read-outs stand apart in the source and are kept apart here.

Test system: Mycosphaerella graminicola; Anamorph: Septoria tritici; Bayer Code SEPTTR
Experiment: Leaf blotch of wheat, foliar fungicide treatment, one day protectant (1DP) or three day curative (3DC)
Type: in vivo, Septoria tritici on wheat plants (variety Yuma)
Conditions: Zymoseptoria tritici; for pest or weed control at 50 ppm / pest or weed control at 200 ppm: % disease control rating
[1] = 24 h, one day protectant (1DP), 25 ppm (first 1DP column), percent control rating, read-out: SETTTR 1DP 25 ppm
[2] = 24 h, one day protectant (1DP), 25 ppm as printed (second 1DP column), percent control rating, read-out: SETTTR 1DP 25 ppm
[3] = 72 h, three day curative (3DC), 25 ppm, percent control rating, read-out: SEPTTR 3DC 25 ppm
[4] = 72 h, three day curative (3DC), percent control rating, read-out: SEPTTR 3DC 100 ppm
[5] = 24 h, one day protectant, 25 ppm, rating of percent disease control, read-out: SETTTR 1DP 25 ppm
[6] = 24 h, one day protectant, rating of percent disease control, read-out: SEPTTR 1DP 100 ppm
[7] = 72 h, three day curative, 25 ppm, rating of percent disease control, read-out: SEPTTR 3DC 25 ppm
[8] = 72 h, three day curative, rating of percent disease control, read-out: SEPTTR 3DC 100 ppm
[9] = 24 h, one day protectant (1DP), 25 ppm, percent disease control rating, read-out: SETTTR 1DP 25 ppm
[10] = 24 h, one day protectant (1DP), percent disease control rating, read-out: SEPTTR 1DP 100 ppm
[11] = 72 h, three day curative (3DC), 25 ppm, percent disease control rating, read-out: SEPTTR 3DC 25 ppm
[12] = 72 h, three day curative (3DC), percent disease control rating, read-out: SEPTTR 3DC 100 ppm
[13] = 24 h, one day protectant (1DP), 25 ppm, rating of percent disease control, read-out: SETTTR 1DP 25 ppm
[14] = 24 h, one day protectant (1DP), rating of percent disease control, read-out: SEPTTR 1DP 100 ppm
[15] = 72 h, three day curative (3DC), 25 ppm, rating of percent disease control, read-out: SEPTTR 3DC 25 ppm
[16] = 72 h, three day curative (3DC), rating of percent disease control, read-out: SEPTTR 3DC 100 ppm

`Fc1cccc(COc2ncc(F)c(NCc3ccc(Cl)cc3)n2)c1` [Compound 820] was tested, and the pest or weed control at 50 ppm (24 h, one day protectant) was 26 to 50% and the pest or weed control at 200 ppm (24 h, one day protectant) was 76 to 100%.

In the case of `O=S(=O)(Nc1nc(OCc2cccs2)ncc1F)c1ccccc1` [Compound 1107], the pest or weed control at 25 ppm [1] is reported as 0 to 25%, the pest or weed control at 25 ppm [2] is reported as 0 to 25% and the pest or weed control at 25 ppm [3] is reported as 0 to 25%. For the same compound, the pest or weed control at 100 ppm [4] was 0 to 25%.

Work on `COc1cccc(COc2ncc(F)c(NC(C)=O)n2)c1` [Compound 550] yielded a pest or weed control at 25 ppm [5] of 76 to 100%, a pest or weed control at 100 ppm [6] of 76 to 100% and a pest or weed control at 25 ppm [7] of 76 to 100%. It also gave a pest or weed control at 100 ppm [8] of 76 to 100%.

In the case of `C=CCOC(=O)Nc1nc(OCc2cccc(OC)c2)ncc1F` [Compound 989], the pest or weed control at 25 ppm [1] is reported as 76 to 100%, the pest or weed control at 25 ppm [2] is reported as 76 to 100% and the pest or weed control at 25 ppm [3] is reported as 51 to 75%. It also gave a pest or weed control at 100 ppm [4] of 76 to 100%.

Work on `Nc1nc(OCc2nc3ccccc3s2)ncc1F` [Compound 104] yielded a pest or weed control at 25 ppm [9] of 76 to 100%, a pest or weed control at 100 ppm [10] of 76 to 100% and a pest or weed control at 25 ppm [11] of 76 to 100%. It also gave a pest or weed control at 100 ppm [12] of 76 to 100%.

With `Cc1ccc(COc2ncc(F)c(N(C)N)n2)cc1` [Compound 253] the pest or weed control at 25 ppm [13] was 26 to 50%, the pest or weed control at 100 ppm [14] was 76 to 100% and the pest or weed control at 25 ppm [15] was 51 to 75%. For the same compound, the pest or weed control at 100 ppm [16] was 76 to 100%.

Compound `COc1cccc(COc2ncc(F)c(NOC(C)C)n2)c1` [Compound 463] has a pest or weed control at 25 ppm [13] of 0 to 25%, a pest or weed control at 100 ppm [14] of 51 to 75% and a pest or weed control at 25 ppm [15] of 26 to 50%. The pest or weed control at 100 ppm [16] was 51 to 75%.

`Nc1nc(OCc2ccc(OCc3ccccc3)cc2)ncc1F` [Compound 193] gave a pest or weed control at 25 ppm [13] of 76 to 100%, a pest or weed control at 100 ppm [14] of 76 to 100% and a pest or weed control at 25 ppm [15] of 76 to 100%. The pest or weed control at 100 ppm [16] was 76 to 100%.

Work on `COc1cccc(COc2ncc(F)c(NC3CC3)n2)c1` [Compound 812] yielded a pest or weed control at 200 ppm (24 h, one day protectant) of 76 to 100%.

With `Fc1ccccc1CNc1nc(OCc2c(Cl)cccc2Cl)ncc1F` [Compound 943] the pest or weed control at 50 ppm (24 h, one day protectant) was 51 to 75% and the pest or weed control at 200 ppm (24 h, one day protectant) was 76 to 100%.

In the case of `CN(C)/C=N/c1nc(OS(=O)(=O)c2ccccc2)ncc1F` [Compound 28, Benzenesulfonic acid 4-(dimethylamino-methyleneamino)-5-fluoro-pyrimidin-2-yl ester], the pest or weed control at 25 ppm [9] is reported as 76 to 100%, the pest or weed control at 100 ppm [10] is reported as 76 to 100% and the pest or weed control at 25 ppm [11] is reported as 76 to 100%. For the same compound, the pest or weed control at 100 ppm [12] was 76 to 100%.

`Nc1nc(OCc2ccc(OC(F)(F)F)cc2)ncc1F` [Compound 596] gave a pest or weed control at 25 ppm [5] of 76 to 100%, a pest or weed control at 100 ppm [6] of 76 to 100% and a pest or weed control at 25 ppm [7] of 76 to 100%. The pest or weed control at 100 ppm [8] was 76 to 100%.

With `COc1ccccc1COc1ncc(F)c(NCc2ccccc2F)n1` [Compound 865] the pest or weed control at 50 ppm (24 h, one day protectant) was 26 to 50% and the pest or weed control at 200 ppm (24 h, one day protectant) was 76 to 100%.

With `O=C(Nc1nc(OCc2ccc(F)cc2)ncc1F)c1snc(Cl)c1Cl` [Compound 12, 3,4-Dichloroisothiazole-5-carboxylic acid [5-fluoro-2-(4-fluorobenzyl-oxy)pyrimidin-4-yl]amide] the pest or weed control at 25 ppm [9] was 76 to 100%, the pest or weed control at 100 ppm [10] was 76 to 100% and the pest or weed control at 25 ppm [11] was 76 to 100%. The pest or weed control at 100 ppm [12] was 76 to 100%.

`Cc1ccc(COc2ncc(F)c(NSc3ccccc3[N+](=O)[O-])n2)cc1` [Compound 443] showed a pest or weed control at 25 ppm [13] of 76 to 100%, a pest or weed control at 100 ppm [14] of 76 to 100% and a pest or weed control at 25 ppm [15] of 26 to 50%. The pest or weed control at 100 ppm [16] was 26 to 50%.

Work on `CC(C)OCNc1nc(OCc2ccc(F)cc2)ncc1F` [Compound 614] yielded a pest or weed control at 25 ppm [5] of 76 to 100%, a pest or weed control at 100 ppm [6] of 76 to 100% and a pest or weed control at 25 ppm [7] of 76 to 100%. For the same compound, the pest or weed control at 100 ppm [8] was 76 to 100%.

`Cc1cc(COc2ncc(F)c(N)n2)ccc1F` [Compound 365] was tested, and the pest or weed control at 25 ppm [13] was 76 to 100%, the pest or weed control at 100 ppm [14] was 76 to 100% and the pest or weed control at 25 ppm [15] was 76 to 100%. The pest or weed control at 100 ppm [16] was 76 to 100%.

In the case of `Nc1nc(OCCCc2ccncc2)ncc1F` [Compound 768], the pest or weed control at 25 ppm [13] is reported as 0 to 25%, the pest or weed control at 100 ppm [14] is reported as 26 to 50% and the pest or weed control at 25 ppm [15] is reported as 0 to 25%. For the same compound, the pest or weed control at 100 ppm [16] was 26 to 50%.

With `Fc1cnc(OCc2ccccn2)nc1NCc1ccc(Cl)cc1` [Compound 935] the pest or weed control at 50 ppm (24 h, one day protectant) was 26 to 50% and the pest or weed control at 200 ppm (24 h, one day protectant) was 76 to 100%.

`Nc1nc(OCc2ccc(F)c(Br)c2)ncc1F` [Compound 156] was tested, and the pest or weed control at 25 ppm [9] was 76 to 100%, the pest or weed control at 100 ppm [10] was 76 to 100% and the pest or weed control at 25 ppm [11] was 76 to 100%. For the same compound, the pest or weed control at 100 ppm [12] was 76 to 100%.

Work on `CN(C)/C=N/c1nc(OC(=O)C(C)(C)C)ncc1F` [Compound 130] yielded a pest or weed control at 25 ppm [9] of 76 to 100%, a pest or weed control at 100 ppm [10] of 76 to 100% and a pest or weed control at 25 ppm [11] of 76 to 100%. For the same compound, the pest or weed control at 100 ppm [12] was 76 to 100%.
